Measurements taken from the CheMixHub viscosity set.
± gives the uncertainty stated by the source.

Experiment: xn = mol fraction of the nth substance listed

CC(=O)CC(C)(C)O + CC(C)O
viscosity [mPa·s], 100 kPa
Conditions	x2 = 0.1	x2 = 0.2	x2 = 0.3	x2 = 0.4	x2 = 0.5	x2 = 0.6	x2 = 0.7	x2 = 0.8	x2 = 0.9
303.15 K	2.39 ± 0.057	2.29 ± 0.054	2.19 ± 0.052	2.09 ± 0.049	2 ± 0.047	1.91 ± 0.045	1.84 ± 0.043	1.78 ± 0.042	1.75 ± 0.041
323.15 K	1.5 ± 0.037	1.43 ± 0.035	1.36 ± 0.033	1.29 ± 0.032	1.23 ± 0.03	1.18 ± 0.029	1.12 ± 0.028	1.08 ± 0.027	1.04 ± 0.026

CCN(CC)S(C)(=O)=O + CC(C)O
303.15 K, 101.33 kPa
Conditions	viscosity [mPa·s]
x1 = 0.068	15930 ± 1700
x1 = 0.1441	15440 ± 1600
x1 = 0.2157	15650 ± 1600
x1 = 0.2582	15980 ± 1700
x1 = 0.3391	16860 ± 1800
x1 = 0.4088	17920 ± 1900
x1 = 0.4524	18630 ± 2000
x1 = 0.5136	19840 ± 2200
x1 = 0.5952	21830 ± 2400
x1 = 0.6857	24330 ± 2800
x1 = 0.7556	26840 ± 3100
x1 = 0.8417	30570 ± 3600
x1 = 0.9259	35180 ± 4300

CC1(C)OCC(CO)O1 (centres undefined) + CC(O)CO
viscosity [mPa·s], 101 kPa
Conditions	x1 = 0.1024	x1 = 0.2011	x1 = 0.2987	x1 = 0.4005	x1 = 0.5	x1 = 0.6041	x1 = 0.6998	x1 = 0.8002	x1 = 0.9017
298.15 K	40.23 ± 0.92	35.6 ± 0.82	31.55 ± 0.73	27.24 ± 0.64	22.86 ± 0.54	19.38 ± 0.46	16.97 ± 0.4	14.5 ± 0.34	12.03 ± 0.28
308.15 K	23.19 ± 0.56	20.46 ± 0.49	18.03 ± 0.44	15.53 ± 0.38	13.03 ± 0.32	11.25 ± 0.28	10.26 ± 0.25	9.248 ± 0.22	7.738 ± 0.19
318.15 K	14.4 ± 0.35	12.56 ± 0.31	11.33 ± 0.28	9.726 ± 0.24	8.135 ± 0.2	7.174 ± 0.18	6.614 ± 0.16	6.244 ± 0.15	5.465 ± 0.13

CCOC(=O)C(C)O (centres undefined) + CCC(C)=O
101 kPa
Conditions	viscosity [mPa·s]
298.15 K, x1 = 0.6999	1.375 ± 0.015
308.15 K, x1 = 0.8	1.345 ± 0.014
308.15 K, x1 = 0.9001	1.595 ± 0.017
318.15 K, x1 = 0.1999	0.4415 ± 0.0061

CC/C=C\CCO + CCCCCC
viscosity [mPa·s], 100 kPa
Conditions	293.15 K	298.15 K	303.15 K	308.15 K	313.15 K	318.15 K
x1 = 0.025	0.3277 ± 0.0052	0.3128 ± 0.0051	0.3002 ± 0.005	0.2869 ± 0.005	0.2756 ± 0.0049	0.2648 ± 0.0049
x1 = 0.0501	0.3397 ± 0.0052	0.3264 ± 0.0052	0.3121 ± 0.0051	0.2966 ± 0.005	0.2844 ± 0.005	0.2727 ± 0.0049
x1 = 0.1	0.3655 ± 0.0054	0.3504 ± 0.0053	0.3343 ± 0.0052	0.3164 ± 0.0052	0.3024 ± 0.0051	0.2892 ± 0.005
x1 = 0.2001	0.4403 ± 0.0059	0.4139 ± 0.0057	0.392 ± 0.0056	0.369 ± 0.0055	0.3498 ± 0.0054	0.3318 ± 0.0053
x1 = 0.2999	0.5582 ± 0.0067	0.5227 ± 0.0065	0.4881 ± 0.0063	0.4558 ± 0.0061	0.4197 ± 0.0059	0.3967 ± 0.0057
x1 = 0.4003	0.6649 ± 0.0077	0.6196 ± 0.0074	0.5788 ± 0.007	0.5377 ± 0.0067	0.497 ± 0.0064	0.467 ± 0.0063
x1 = 0.4994	0.8527 ± 0.0095	0.7851 ± 0.0089	0.7244 ± 0.0084	0.6686 ± 0.008	0.6173 ± 0.0075	0.5715 ± 0.0072
x1 = 0.5998	1.103 ± 0.012	1.005 ± 0.011	0.9179 ± 0.01	0.8404 ± 0.0097	0.7733 ± 0.0091	0.7131 ± 0.0086
x1 = 0.6998	1.451 ± 0.016	1.306 ± 0.015	1.18 ± 0.013	1.07 ± 0.012	0.978 ± 0.011	0.889 ± 0.01
x1 = 0.7995	1.878 ± 0.021	1.701 ± 0.019	1.522 ± 0.017	1.366 ± 0.016	1.238 ± 0.014	1.126 ± 0.013
x1 = 0.8996	2.51 ± 0.028	2.234 ± 0.025	1.981 ± 0.023	1.763 ± 0.02	1.58 ± 0.018	1.429 ± 0.017

CCCCC + CCCCCC
298.15 K, 101.33 kPa
Conditions	viscosity [mPa·s]
x1 = 0.1045	0.2898 ± 0.0049
x1 = 0.2098	0.2802 ± 0.0048
x1 = 0.3107	0.2724 ± 0.0047
x1 = 0.4113	0.2641 ± 0.0046
x1 = 0.5105	0.2574 ± 0.0045
x1 = 0.6025	0.2497 ± 0.0045
x1 = 0.7041	0.2432 ± 0.0044
x1 = 0.7966	0.2364 ± 0.0043
x1 = 0.8997	0.228 ± 0.0042

CCCCCCCO + CCCCCC
viscosity [mPa·s], 101.33 kPa
Conditions	303.15 K	313.15 K
x1 = 0.0308	0.2866 ± 0.0041	0.2693 ± 0.004
x1 = 0.0919	0.3254 ± 0.0043	0.294 ± 0.0041
x1 = 0.1567	0.3966 ± 0.0047	0.3446 ± 0.0044
x1 = 0.2496	0.5095 ± 0.0054	0.4493 ± 0.005
x1 = 0.4018	0.7642 ± 0.0071	0.6611 ± 0.0064
x1 = 0.4831	0.9566 ± 0.0089	0.7663 ± 0.0074
x1 = 0.578	1.248 ± 0.012	0.9882 ± 0.0093
x1 = 0.6838	1.776 ± 0.017	1.348 ± 0.013
x1 = 0.7882	2.479 ± 0.024	1.832 ± 0.018
x1 = 0.8946	3.522 ± 0.034	2.473 ± 0.026
x1 = 0.9642	4.384 ± 0.041	3.175 ± 0.034
